The subject of one data set is recombinant NL4-3 virus. Briefly: HIV cell culture assay (antiviral activity, luciferase readout in MT-2 cells). It counts as cell-based. The conditions noted are these: Human immunodeficiency virus 1, NL43, MT2. The method, boiled down:
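MT-2 cells infected for 4-5 days with NL4-3 reference virus carrying Renilla luciferase in place of part of nef, in presence of serial compound dilutions. Luciferase activity read with live-cell substrate. EC50 derived from median effect equation, slope parameter m.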

A short description of data set [1]: Compound cytotoxicity, XTT-based colorimetric assay. The class given is cell-based. To be noted: human. The method, boiled down: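 Run under the antiviral-assay protocol but without virus. Viability was read on day 4 and CC50 values were derived from the readout.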
The mark [2] stands for this setting: uninfected MT2 cells, day 4, XTT, read-out: CC50.

Among the data in US20210395262A1, “INHIBITORS OF HUMAN IMMUNODEFICIENCY VIRUS REPLICATION” (ViiV HEALTHCARE UK (NO.5) LIMITED, priority 2018, published 2021) are EC50 and CC50 values, retold here.

Where two headings read alike, the source gives them in different places.

On to `C[C@@H]1CN(c2ccc3c(=O)n(-c4ccc(Cl)c5c(NS(C)(=O)=O)nn(C)c45)c([C@H](Cc4cc(F)cc(F)c4)NC(=O)Cn4nc(C(F)(F)F)c5c4C(F)(F)[C@@H]4C[C@H]54)nc3c2)C[C@H](C)O1` (atropisomer, axis not shown; (P)) [Example 54, N—((S)-1-((3P)-3-(4-chloro-1-methyl-3-(methylsulfonamido)-1H-indazol-7-yl)-7-((2S,6R)-2,6-dimethylmorpholino)-4-oxo-3,4-dihydroquinazolin-2-yl)-2-(3,5-difluorophenyl)ethyl)-2-((3bS,4aR)-5,5-difluoro-3-(trifluoromethyl)-3b,4,4a,5-tetrahydro-1H-cyclopropa[3,4]cyclopenta[1,2-c]pyrazol-1-yl)acetamide], for which the EC50 in the data set on recombinant NL4-3 virus worked out at 0.073 nM. Also, the 50% cytotoxic concentration (CC50) at 4 days in data set [1] (setting [2]) is more than 500 nM.
Take `Cn1nc(NS(C)(=O)=O)c2c(Cl)ccc(-n3c([C@H](Cc4cc(F)cc(F)c4)NC(=O)Cn4nc(C(F)F)c5c4C(F)(F)[C@@H]4C[C@H]54)nc4cc(N5CC(C)(C)OC(C)(C)C5)ccc4c3=O)c21` (atropisomer, axis not shown; (P)) [Example 57, N—((S)-1-((3P)-3-(4-chloro-1-methyl-3-(methylsulfonamido)-1H-indazol-7-yl)-4-oxo-7-(2,2,6,6-tetramethylmorpholino)-3,4-dihydroquinazolin-2-yl)-2-(3,5-difluorophenyl)ethyl)-2-((3bS,4aR)-3-(difluoromethyl)-5,5-difluoro-3b,4,4a,5-tetrahydro-1H-cyclopropa[3,4]cyclopenta[1,2-c]pyrazol-1-yl)acetamide]: the concentration for a half-maximal effect (EC50) with recombinant NL4-3 virus came to 0.077 nM. Also, the CC50 at 4 days in data set [1] (setting [2]) was more than 500 nM.
The matching figures for `C[C@@H]1CN(c2ccc3c(=O)n(-c4ccc(Cl)c5c(NS(C)(=O)=O)nn(CC(F)(F)F)c45)c([C@H](Cc4cc(F)cc(F)c4)NC(=O)Cn4nc(C(F)F)c5c4C(F)(F)[C@@H]4C[C@H]54)nc3c2)C[C@H](C)O1` (atropisomer, axis not shown; (P)) [Example 58, N—((S)-1-((3P)-3-(4-chloro-3-(methylsulfonamido)-1-(2,2,2-trifluoroethyl)-1H-indazol-7-yl)-7-((2S,6R)-2,6-dimethylmorpholino)-4-oxo-3,4-dihydroquinazolin-2-yl)-2-(3,5-difluorophenyl)ethyl)-2-((3bS,4aR)-3-(difluoromethyl)-5,5-difluoro-3b,4,4a,5-tetrahydro-1H-cyclopropa[3,4]cyclopenta[1,2-c]pyrazol-1-yl)acetamide]: 0.053 nM and more than 500 nM.
The matching figures for `C[C@@H]1CN(c2ccc3c(=O)n(-c4ccc(Cl)c5c(NS(C)(=O)=O)nn(CC(F)(F)F)c45)c([C@H](Cc4cc(F)cc(F)c4)NC(=O)Cn4nc(C(F)F)cc4C4CC4)nc3c2)C[C@H](C)O1` (atropisomer, axis not shown; (P)) [Example 59, N—((S)-1-((3P)-3-(4-chloro-3-(methylsulfonamido)-1-(2,2,2-trifluoroethyl)-1H-indazol-7-yl)-7-((2S,6R)-2,6-dimethylmorpholino)-4-oxo-3,4-dihydroquinazolin-2-yl)-2-(3,5-difluorophenyl)ethyl)-2-(5-cyclopropyl-3-(difluoromethyl)-1H-pyrazol-1-yl)acetamide]: 0.42 nM and more than 500 nM.
Take `C[C@@H]1CN(c2ccc3c(=O)n(-c4ccc(Cl)c5c(NS(C)(=O)=O)nn(CC(F)(F)F)c45)c([C@H](Cc4cc(F)cc(F)c4)NC(=O)Cn4nc(C5CC5)cc4C(F)F)nc3c2)C[C@H](C)O1` (atropisomer, axis not shown; (P)) [Example 60, N—((S)-1-((3P)-3-(4-chloro-3-(methylsulfonamido)-1-(2,2,2-trifluoroethyl)-1H-indazol-7-yl)-7-((2S,6R)-2,6-dimethylmorpholino)-4-oxo-3,4-dihydroquinazolin-2-yl)-2-(3,5-difluorophenyl)ethyl)-2-(3-cyclopropyl-5-(difluoromethyl)-1H-pyrazol-1-yl)acetamide]: the EC50 with recombinant NL4-3 virus is 0.36 nM. Moreover, the CC50 at 4 days in data set [1] (setting [2]) is more than 500 nM.
The matching figures for `C[C@@H]1CN(c2ccc3c(=O)n(-c4ccc(Cl)c5c(NS(C)(=O)=O)nn(CC(F)(F)F)c45)c([C@H](Cc4cc(F)cc(F)c4)NC(=O)Cn4nc(C(F)(F)F)c5c4C(F)(F)[C@@H]4C[C@H]54)nc3c2)C[C@H](C)O1` (atropisomer, axis not shown; (P)) [Example 61, N—((S)-1-((3P)-3-(4-chloro-3-(methylsulfonamido)-1-(2,2,2-trifluoroethyl)-1H-indazol-7-yl)-7-((2S,6R)-2,6-dimethylmorpholino)-4-oxo-3,4-dihydroquinazolin-2-yl)-2-(3,5-difluorophenyl)ethyl)-2-((3bS,4aR)-5,5-difluoro-3-(trifluoromethyl)-3b,4,4a,5-tetrahydro-1H-cyclopropa[3,4]cyclopenta[1,2-c]pyrazol-1-yl)acetamide]: 0.084 nM and more than 500 nM.
The matching figures for `C[C@@H]1CN(c2ccc3c(=O)n(-c4ccc(Cl)c5c(NS(=O)(=O)C6CC6)nn(CC(F)(F)F)c45)c([C@H](Cc4cc(F)cc(F)c4)NC(=O)Cn4nc(C(F)F)c5c4C(F)(F)[C@@H]4C[C@H]54)nc3c2)C[C@H](C)O1` (atropisomer, axis not shown; (P)) [Example 62, N—((S)-1-((3P)-3-(4-chloro-3-(cyclopropanesulfonamido)-1-(2,2,2-trifluoroethyl)-1H-indazol-7-yl)-7-((2S,6R)-2,6-dimethylmorpholino)-4-oxo-3,4-dihydroquinazolin-2-yl)-2-(3,5-difluorophenyl)ethyl)-2-((3bS,4aR)-3-(difluoromethyl)-5,5-difluoro-3b,4,4a,5-tetrahydro-1H-cyclopropa[3,4]cyclopenta[1,2-c]pyrazol-1-yl)acetamide]: 0.067 nM and more than 500 nM.
The matching figures for `C[C@@H]1CN(c2ccc3c(=O)n(-c4ccc(Cl)c5c(NS(=O)(=O)C6CC6)nn(CC(F)(F)F)c45)c([C@H](Cc4cc(F)cc(F)c4)NC(=O)Cn4nc(C(F)(F)F)c5c4C(F)(F)[C@@H]4C[C@H]54)nc3c2)C[C@H](C)O1` (atropisomer, axis not shown; (P)) [Example 63, N—((S)-1-((3P)-3-(4-chloro-3-(cyclopropanesulfonamido)-1-(2,2,2-trifluoroethyl)-1H-indazol-7-yl)-7-((2S,6R)-2,6-dimethylmorpholino)-4-oxo-3,4-dihydroquinazolin-2-yl)-2-(3,5-difluorophenyl)ethyl)-2-((3bS,4aR)-5,5-difluoro-3-(trifluoromethyl)-3b,4,4a,5-tetrahydro-1H-cyclopropa[3,4]cyclopenta[1,2-c]pyrazol-1-yl)acetamide]: 0.15 nM and more than 500 nM.
For the compound `CCS(=O)(=O)Nc1nn(C)c2c(-n3c([C@H](Cc4cc(F)cc(F)c4)NC(=O)Cn4nc(C(F)F)c5c4C(F)(F)[C@@H]4C[C@H]54)nc4cc(N5CCOCC5)ccc4c3=O)ccc(Cl)c12` (atropisomer, axis not shown; (P)) [Example 65, N—((S)-1-((3P)-3-(4-chloro-3-(ethylsulfonamido)-1-methyl-1H-indazol-7-yl)-7-morpholino-4-oxo-3,4-dihydroquinazolin-2-yl)-2-(3,5-difluorophenyl)ethyl)-2-((3bS,4aR)-3-(difluoromethyl)-5,5-difluoro-3b,4,4a,5-tetrahydro-1H-cyclopropa[3,4]cyclopenta[1,2-c]pyrazol-1-yl)acetamide], the EC50 in the data set with recombinant NL4-3 virus is 0.051 nM. The CC50 at 4 days in data set [1] (setting [2]) is more than 500 nM.
The matching figures for `CCCS(=O)(=O)Nc1nn(C)c2c(-n3c([C@H](Cc4cc(F)cc(F)c4)NC(=O)Cn4nc(C(F)F)c5c4C(F)(F)[C@@H]4C[C@H]54)nc4cc(N5CCOCC5)ccc4c3=O)ccc(Cl)c12` (atropisomer, axis not shown; (P)) [Example 66, N—((S)-1-((3P)-3-(4-chloro-1-methyl-3-(propylsulfonamido)-1H-indazol-7-yl)-7-morpholino-4-oxo-3,4-dihydroquinazolin-2-yl)-2-(3,5-difluorophenyl)ethyl)-2-((3bS,4aR)-3-(difluoromethyl)-5,5-difluoro-3b,4,4a,5-tetrahydro-1H-cyclopropa[3,4]cyclopenta[1,2-c]pyrazol-1-yl)acetamide]: 0.066 nM and more than 500 nM.
As for `Cn1nc(NS(C)(=O)=O)c2c(Cl)ccc(-n3c([C@H](Cc4cc(F)cc(F)c4)NC(=O)Cn4nc(C(F)F)c5c4C(F)(F)[C@@H]4C[C@H]54)nc4cc(N5C6COCC5COC6)ccc4c3=O)c21` [Example 6, N—((S)-1-(7-(3,7-dioxa-9-azabicyclo[3.3.1]nonan-9-yl)-(3P)-3-(4-chloro-1-methyl-3-(methylsulfonamido)-1H-indazol-7-yl)-4-oxo-3,4-dihydroquinazolin-2-yl)-2-(3,5-difluorophenyl)ethyl)-2-((3bS,4aR)-3-(difluoromethyl)-5,5-difluoro-3b,4,4a,5-tetrahydro-1H-cyclopropa[3,4]cyclopenta[1,2-c]pyrazol-1-yl)acetamide], the 50% effective concentration (EC50) with recombinant NL4-3 virus amounted to 0.145 nM. This compound came in with a CC50 at 4 days in data set [1] of more than 500 nM.
Take `Cn1nc(NS(C)(=O)=O)c2c(Cl)ccc(-n3c([C@H](Cc4cc(F)cc(F)c4)NC(=O)Cn4nc(C(F)F)c5c4C(F)(F)[C@@H]4C[C@H]54)nc4cc(N5CC6CCC(C5)O6)ccc4c3=O)c21` [Example 27, N—((S)-1-(7-((1R,5S)-8-oxa-3-azabicyclo[3.2.1]octan-3-yl)-(3P)-3-(4-chloro-1-methyl-3-(methylsulfonamido)-1H-indazol-7-yl)-4-oxo-3,4-dihydroquinazolin-2-yl)-2-(3,5-difluorophenyl)ethyl)-2-((3bS,4aR)-3-(difluoromethyl)-5,5-difluoro-3b,4,4a,5-tetrahydro-1H-cyclopropa[3,4]cyclopenta[1,2-c]pyrazol-1-yl)acetamide]: in the data set with recombinant NL4-3 virus, the concentration giving a half-maximal response (EC50) is 0.051 nM. In data set [1] (setting [2]), the CC50 at 4 days was more than 500 nM.
